Read-outs that look alike come from different tables or passages of the source.
Key:
MDA-MB-231 cells [1] = experiment: Cell proliferation evaluation (label-free image cell counting); format: cell-based, human; conditions: for concentration of maximum suppression of cell proliferation: MDA-MB-231, 48 h
Protocol: (§1) The human TNBC MDA-MB-231 cell line (ATCC HTB-26) and the non-cancerous breast cell line MCF-12A (ATCC CRL-10782) were purchased from ATCC (Manassas, VA, USA). DMEM-HG cell growth medium supplemented with 10% (v/v) FBS was used to culture breast cancer cells. To establish a cisplatin-resistant cell strain, MDA-MB-231 cells were continuously treated with increasing concentrations of cisplatin (up to 2 µM) during a period of 6 months. When a consistent cell growth rate in the presence of cisplatin was achieved, these cells were named MDA-MB-231/R and stocked to assure the consistency of the phenotype for future use and experiments. All posterior experiments were performed within 10 passages to maintain the resistance while routinely growing the MDA-MB-231/R cell line in a cell culture medium without the addition of cisplatin. MCF-12A cells were cultured in DMEM/F12 medium supplemented with 100 ng/mL cholera toxin, 0.01 mg/mL bovine insulin, 20 ng/mL hEGF, 500 ng/mL hydrocortisone and 5% (v/v) horse serum. Cells were grown in monolayers in a sterile environment at 37 °C with a 5% CO2 humidified atmosphere. Under these conditions, the population doubling time was 25.5 ± 0.9 h and 30.6 ± 1.1 h for MDA-MB-231 and MDA-MB-231/R cells, respectively, and 20.6 ± 3.1 h for MCF-12A cells. The cell cultures were routinely screened for mycoplasma contamination, yielding negative results.
(§2) Cells were seeded in 96-well microplates at the cell density 1.5 × 10^4 cells/cm^2 (final volume 200 µL/well) and left 24 h to attach. Afterwards, the growth medium was replaced with the growth medium containing cisplatin (0.1–200 µM), Pd3Spd2 (0.3–200 µM), Pt3Spd2 (0.3–100 µM) and Pd2Spm (0.3–200 µM).
(§3) Cell proliferation was monitored with the direct image acquisition of cells on microplates at 0, 24, 48 and 72 h post-addition of the tested compounds using a LionheartFX automated microscope (BioTek, Winooski, VT, USA). Label-free kinetic 4× images were acquired and processed using Gen 5 Image Analysis software (BioTek, Winooski, VT, USA). Individual cells per image were identified and counted, and normalized cell growth (%) was calculated using the following formula: Ct=Number of Treated Cellst−Number of Treated Cells0/Number of Untreated Cellst−Number of Untreated Cells0×100 where C(t) is the percent of net cell growth over time, Number of Treated Cells(t) is the count of cells treated with drug at each time point, Number of Treated Cells(0) is the count cells treated with drug at time 0 h, Number of Untreated Cells(t) is the count of untreated (control) cells at each time point and Number of Untreated Cells(0) is the count of untreated (control) cells at time 0 h.
(§4) Data are expressed as the mean ± standard error of the mean (SEM). GraphPad Prism 7 Software (San Diego, CA, USA) was used, and the statistical analysis was performed using the two-tailed Student’s t-test. The half-maximal inhibitory concentration values (IC50) were calculated by interpolation from the nonlinear regression curves obtained from cell proliferation/cytotoxicity data using “log(inhibitor) versus the normalized response–variable slope equation”. A p-value lower than 0.05 was considered statistically significant.

[2] = tested on: MDA-MB-231/R cells (cisplatin-resistant); experiment: as above; format: cell-based, human; conditions: for IC50: suppression of cell proliferation, n = 4; for concentration of maximum suppression of cell proliferation: MDA-MB-231/R; for Resistance Index: IC50 MDA-MB-231/R divided by IC50 MDA-MB-231, cell proliferation assay
Protocol: as §1, §2, §3, §4

MDA-MB-231 cells [3] = experiment: MTT assay (cell viability); format: cell-based, human; conditions: n = 4
Protocol: (§5) The cells were harvested upon the addition of trypsin/EDTA solution, seeded in 96-well plates (1.5 × 10^4 cells/cm^2) and incubated at 37 °C. After allowing the cells to adhere for 24 h, the growth medium was replaced with the growth medium containing Pd3Spd2 (1–200 µM) or Pt3Spd2 (1–200 µM).
(§6) After each incubation period (24, 48 and 72 h), the cell viability was evaluated by the MTT [33] method. Briefly, a MTT solution (0.5 mg/mL in PBS) was added to each well after carefully removing the medium and allowed to incubate for 3 h at 37 °C; after which, the MTT was aspirated and, in order to dissolve the formazan crystals, 100 µL of DMSO were added. The optical density was measured at 570 nm.
as §4

[4] = tested on: MDA-MB-231/R cells (cisplatin-resistant); experiment: MTT assay (cell viability); format: cell-based, human; conditions: for IC50: cell viability, MTT assay, n = 4
Protocol: as §5, §6, §4

[5] = tested on: MCF-12A cells (non-cancerous breast cells); experiment: Cell proliferation evaluation (label-free image cell counting); format: cell-based, human; conditions: for IC50: suppression of cell proliferation, n = 4, read-out: IC50 against MCF-12A cells; for Selectivity Index for MDA-MB-231/R: IC50 MCF-12A divided by IC50 MDA-MB-231/R
Protocol: as §1, §2, §3, §4

sarcoma = tested on: sarcoma; parameters: method as in earlier work; conditions: cited from earlier work
leukemic P388 cells = tested on: leukemic P388 cells; parameters: method as in doi:10.1016/j.ccr.2016.02.001; conditions: cited from earlier work
[6] = suppression of cell proliferation, 24 h incubation, n = 4, read-out: MDA-MB-231 IC50
[7] = suppression of cell proliferation, 48 h incubation, n = 4, read-out: MDA-MB-231 IC50
[8] = suppression of cell proliferation, 72 h incubation, n = 4, read-out: MDA-MB-231 IC50
[9] = IC50 MCF-12A divided by IC50 MDA-MB-231, 48 h

SMILES | IC50 (MDA-MB-231 cells [1]; [6]) [µM] | IC50 (MDA-MB-231 cells [1]; [7]) [µM] | IC50 (MDA-MB-231 cells [1]; [8]) [µM] | IC50 ([2]; 24 h incubation) [µM] | IC50 ([2]; 48 h incubation) [µM] | IC50 ([2]; 72 h incubation) [µM] | IC50 (MDA-MB-231 cells [3]; 24 h incubation) [µM] | IC50 (MDA-MB-231 cells [3]; 48 h incubation) [µM] | IC50 (MDA-MB-231 cells [3]; 72 h incubation) [µM] | IC50 ([4]; 24 h incubation) [µM] | IC50 ([4]; 48 h incubation) [µM] | IC50 ([4]; 72 h incubation) [µM] | concentration of maximum suppression of cell proliferation (MDA-MB-231 cells [1]) [µM] | concentration of maximum suppression of cell proliferation ([2]; 48 h) [µM] | IC50 ([5]; 48 h incubation) [µM] | Selectivity Index for MDA-MB-231 [5, 9] | also measured
NCCCCNCCCN.NCCCCNCCCN.[Cl][Pt][Cl].[Cl][Pt][Cl].[Cl][Pt][Cl] [Pt3Spd2] | > 100 | > 100 | > 100 | > 100 | > 100 | > 100 | > 100 | > 100 | > 100 | > 100 | 67.9 | > 100 |  |  |  |  | reduction of cell proliferation (MDA-MB-231 cells [1]; MDA-MB-231, only with concentrations above 100 μM): up to 25%; IC50 (MDA-MB-231 cells [1]; cell proliferation, depending on the incubation period (24, 48, 72 h), read-out: IC50 in MDA-MB-231 cells, over all incubation periods): > 100 µM
NCCCNCCCCNCCCN.[Cl][Pd][Cl].[Cl][Pd][Cl] [Pd2Spm, reference compound] |  | 7.9 |  |  | 11.6 |  |  |  |  |  |  |  | 30 | 30 | ~90 |  | concentrations required to suppress/modify MCF-12A cell proliferation ([5]; MCF-12A healthy breast cells, 48 h): above 40 μM; suppression of MCF-12A cell proliferation ([5]; MCF-12A, for 100 μM, 48 h): up to 60%
N.N.[Cl][Pt][Cl] [cisplatin, cis-dichlorodiammine platinum(II)] |  | 1 |  |  | 32.4 |  |  |  |  |  |  |  | 30 | 200 | 1 | 1 | 
NCCCCNCCCN.NCCCCNCCCN.[Cl][Pd][Cl].[Cl][Pd][Cl].[Cl][Pd][Cl] [Pd3Spd2] | 8.35 | 8.44 | 7.92 | 13.3 | 10.6 | 10.8 | 8.99 | 4.65 | 6.12 | 9.24 | 10.6 | 11.4 | 30 | 30 | 53 | 6.28 | concentrations that suppressed cell proliferation (MDA-MB-231 cells [1]; MDA-MB-231, 24-72 h, concentration-dependent): above 1 μM; Resistance Index ([2]; 24 h): 1.6; Resistance Index ([2]; 48 h): 1.3; Resistance Index ([2]; 72 h): 1.4; Selectivity Index for MDA-MB-231 ([5]; IC50 MCF-12A divided by IC50 MDA-MB-231, 24 h): 7.94; Selectivity Index for MDA-MB-231 ([5]; IC50 MCF-12A divided by IC50 MDA-MB-231, 72 h): 6.28; Selectivity Index for MDA-MB-231/R ([5]; 48 h): 4.99; Selectivity Index for MDA-MB-231/R ([5]; 72 h): 4.59; selectivity index for MDA-MB-231 cells (sensitive TNBC), over incubation times ([5]; MCF-12A versus MDA-MB-231, depending on the time of incubation (24-72 h)): > 6.28; selectivity index for MDA-MB-231/R cells (resistant TNBC), over incubation times ([5]; MCF-12A versus MDA-MB-231/R, depending on the time of incubation (24-72 h)): > 4.59; IC50 ([5]; 24 h incubation): 66.3 µM; IC50 ([5]; 72 h incubation): 49.7 µM; resistance index (abstract summary) ([4]; MDA-MB-231/R versus MDA-MB-231, over assays and incubation times): lower than 2.3
O=[N+]([O-])[O-].O=[N+]([O-])[O-].[Pd+2].c1ccc(-c2ccccn2)nc1 [Pd(bpy)(ONO2)2] |  |  |  |  |  |  |  |  |  |  |  |  |  |  |  |  | antitumor activity against sarcoma (sarcoma): effective antitumor agent; activity towards leukemic P388 cells (leukemic P388 cells): inactive

From PMC10145437, “Pd(II) and Pt(II) Trinuclear Chelates with Spermidine: Selective Anticancer Activity towards TNBC-Sensitive and -Resistant to Cisplatin” (Pharmaceutics, 2023)
